The values that follow come from patent publication US20230017045A1, “PYRIDINE AND PYRIMIDINE CARBOXYLATE HERBICIDES AND METHODS OF USE THEREOF” (Dow AgroSciences LLC, priority 2017, published 2023).

For the experiment, the system named is test plant species. The experiment in a line: Post-emergent herbicidal activity test (greenhouse, foliar spray, visual growth reduction). It is filed as in vivo. The settings on record: post-emergence, 336 h, 140 g ai/ha, 14 days after application. Put shortly:
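Seedlings were raised 7-21 d in a greenhouse under a 15 h photoperiod until the first or second true leaf. Each compound, dissolved in acetone:DMSO 97:3 and diluted into a surfactant-containing spray mixture, was then applied at 187 L/ha. Plants were subirrigated, and growth reduction was scored visually at 14 d.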

Setting [1] is: ALOMY: blackgrass (Alopecurus myosuroides), read-out: Visual Growth Reduction (%) 14 Days After Application, ALOMY.
Setting [2] is: AMARE: redroot pigweed (Amaranthus retroflexus), read-out: Visual Growth Reduction (%) 14 Days After Application, AMARE.
Setting [3] is: AVEFA: wild oat (Avena fatua), read-out: Visual Growth Reduction (%) 14 Days After Application, AVEFA.
[4] abbreviates: CHEAL: lambsquarters (Chenopodium album), read-out: Visual Growth Reduction (%) 14 Days After Application, CHEAL.
The mark [5] stands for this setting: CIRAR: canada thistle (Cirsium arvense), read-out: Visual Growth Reduction (%) 14 Days After Application, CIRAR.
Where [6] appears, read: CYPES: yellow nutsedge (Cyperus esculentus), read-out: Visual Growth Reduction (%) 14 Days After Application, CYPES.
Where [7] appears, read: DIGSA: crabgrass (Digitaria sanguinalis), read-out: Visual Growth Reduction (%) 14 Days After Application, DIGSA.
The mark [8] stands for this setting: ECHCG: barnyardgrass (Echinochloa crus-galli), read-out: Visual Growth Reduction (%) 14 Days After Application, ECHCG.
[9] abbreviates: IPOHE: ivy-leaf morning glory (Ipomoea hederacea), read-out: Visual Growth Reduction (%) 14 Days After Application, IPOHE.
Where [10] appears, read: KCHSC: kochia (Bassia scoparia), read-out: Visual Growth Reduction (%) 14 Days After Application, KCHSC.
Setting [11] is: ORYSA: rice (Oryza sativa), read-out: Visual Growth Reduction (%) 14 Days After Application, ORYSA.
Where [12] appears, read: SETFA: giant foxtail (Setaria faberi), read-out: Visual Growth Reduction (%) 14 Days After Application, SETFA.
[13] abbreviates: SORVU: grain sorghum (Sorghum vulgare), read-out: Visual Growth Reduction (%) 14 Days After Application, SORVU.
[14] abbreviates: TRZAS: wheat, spring (Triticum aestivum), read-out: Visual Growth Reduction (%) 14 Days After Application, TRZAS.
Where [15] appears, read: STEME: common chickweed (Stellaria media), read-out: Visual Growth Reduction (%) 14 Days After Application, STEME.

Structures are written as SMILES. Read-outs that look alike come from different tables or passages of the source.

Consider `COC(=O)c1nc(-c2ccc(C(F)(F)F)cc2Cl)cc(Cl)c1Cl` [F108, methyl 3,4-dichloro-6-(2-chloro-4-(trifluoromethyl)phenyl)picolinate], for which the pest or weed control at 140 g/ha runs as follows: under setting [1], 0 to 29%; under setting [2], 0 to 29%; under setting [3], 0 to 29%; under setting [4], 0 to 29%; under setting [5], 0 to 29%; under setting [6], 0 to 29%. Also, the pest or weed control at 140 g/ha is 0 to 29% under setting [7]; 0 to 29% under setting [8]; 30 to 44% under setting [9]; 0 to 29% under setting [10]; 0 to 29% under setting [11]; 0 to 29% under setting [12]. Further, the pest or weed control at 140 g/ha is, setting by setting: under setting [13], 0 to 29%; under setting [14], 0 to 29%.

In the case of `COC(=O)c1nc(-c2ccc(C(F)(F)F)c(F)c2F)ccc1Cl` [F110, Methyl 3-chloro-6-(2,3-difluoro-4-(trifluoromethyl)phenyl)picolinate], the pest or weed control at 140 g/ha reads like this: under setting [1], 0 to 29%; under setting [2], 85 to 94%; under setting [3], 0 to 29%; under setting [4], 75 to 84%; under setting [5], 85 to 94%; under setting [6], 0 to 29%. In addition, the pest or weed control at 140 g/ha lay in the range of 0 to 29% under setting [7]; 0 to 29% under setting [8]; 95 to 100% under setting [9]; 0 to 29% under setting [10]; 0 to 29% under setting [11]; 0 to 29% under setting [12]. Further, the pest or weed control at 140 g/ha lay in the range of 60 to 74% under setting [13] and 0 to 29% under setting [14].

Consider `CC(F)(F)c1ccc(-c2ccc(Cl)c(C(=O)O)n2)c(Cl)c1` [F111, 3-Chloro-6-(2-chloro-4-(1,1-difluoroethyl)phenyl) picolinic acid], for which the pest or weed control at 140 g/ha was 60 to 74% under setting [1]; 95 to 100% under setting [2]; 60 to 74% under setting [3]; 95 to 100% under setting [4]; 95 to 100% under setting [5]; 0 to 29% under setting [6]. Moreover, the pest or weed control at 140 g/ha runs as follows: under setting [7], 85 to 94%; under setting [8], 95 to 100%; under setting [9], 95 to 100%; under setting [10], 95 to 100%; under setting [11], 0 to 29%; under setting [12], 75 to 84%. Further, the pest or weed control at 140 g/ha is, setting by setting: under setting [13], 85 to 94%; under setting [14], 75 to 84%.

Turning to `COC(=O)c1nc(-c2ccc(C(C)(F)F)cc2Cl)ccc1Cl` [F112, Methyl 3-chloro-6-(2-chloro-4-(1,1-difluoroethyl)phenyl) picolinate], the pest or weed control at 140 g/ha under setting [1] is 60 to 74%; the pest or weed control at 140 g/ha under setting [2] lay within 95 to 100%; the pest or weed control at 140 g/ha under setting [3] lay within 95 to 100%; the pest or weed control at 140 g/ha under setting [4] was in the range of 95 to 100%; the pest or weed control at 140 g/ha under setting [5] lay within 95 to 100%; the pest or weed control at 140 g/ha under setting [6] lay within 45 to 59%. Further, the pest or weed control at 140 g/ha under setting [7] fell in the range of 85 to 94%; the pest or weed control at 140 g/ha under setting [8] was 75 to 84%; the pest or weed control at 140 g/ha under setting [9] fell in the range of 95 to 100%; the pest or weed control at 140 g/ha under setting [10] fell in the range of 95 to 100%; the pest or weed control at 140 g/ha under setting [11] was in the range of 0 to 29%; the pest or weed control at 140 g/ha under setting [12] fell in the range of 60 to 74%. The pest or weed control at 140 g/ha was in the range of 95 to 100% under setting [13] and 60 to 74% under setting [14].

For the compound `COC(=O)c1nc(-c2ccc(C(F)(F)F)cc2Cl)ccc1F` [F113, methyl 6-(2-chloro-4-(trifluoromethyl)phenyl)-3-fluoropicolinate], the pest or weed control at 140 g/ha lay in the range of 0 to 29% under setting [1]; 95 to 100% under setting [2]; 45 to 59% under setting [3]; 95 to 100% under setting [4]; 85 to 94% under setting [5]; 0 to 29% under setting [6]. The pest or weed control at 140 g/ha reads like this: under setting [7], 85 to 94%; under setting [8], 75 to 84%; under setting [9], 95 to 100%; under setting [10], 60 to 74%; under setting [11], 30 to 44%; under setting [12], 75 to 84%. Also, the pest or weed control at 140 g/ha under setting [13] was in the range of 85 to 94%, the pest or weed control at 140 g/ha under setting [15] is 0 to 29% and the pest or weed control at 140 g/ha under setting [14] lay within 0 to 29%.

As for `COC(=O)c1nc(-c2ccc(C(F)(F)F)nc2)ccc1Cl` [F114, Methyl 5-chloro-6′-(trifluoromethyl)-[2,3′-bipyridine]-6-carboxylate], the pest or weed control at 140 g/ha lay in the range of 0 to 29% under setting [1]; 0 to 29% under setting [2]; 0 to 29% under setting [3]; 0 to 29% under setting [4]; 0 to 29% under setting [5]; 0 to 29% under setting [6]. Moreover, the pest or weed control at 140 g/ha lay within 0 to 29% under setting [7]; 0 to 29% under setting [8]; 30 to 44% under setting [9]; 0 to 29% under setting [10]; 0 to 29% under setting [11]; 0 to 29% under setting [12]. The pest or weed control at 140 g/ha by setting is: under setting [13], 0 to 29%; under setting [15], 0 to 29%; under setting [14], 0 to 29%.

Turning to `COC(=O)c1nc(-c2ccc(Cl)c(OC)c2F)ncc1Cl` [F115, methyl 5-chloro-2-(4-chloro-2-fluoro-3-methoxyphenyl)pyrimidine-4-carboxylate], the pest or weed control at 140 g/ha was in the range of 0 to 29% under setting [1]; 0 to 29% under setting [2]; 0 to 29% under setting [3]; 0 to 29% under setting [4]; 60 to 74% under setting [5]; 0 to 29% under setting [6]. Besides, the pest or weed control at 140 g/ha lay within 0 to 29% under setting [7]; 0 to 29% under setting [8]; 30 to 44% under setting [9]; 0 to 29% under setting [11]; 0 to 29% under setting [12]; 0 to 29% under setting [13]. For the same compound, the pest or weed control at 140 g/ha lay within 0 to 29% under setting [15] and 0 to 29% under setting [14].

As to `O=C(OCc1ccc(Cl)cc1Cl)c1nc(-c2ccc(C(F)(F)F)cc2Cl)ccc1Cl` [F116, 2,4-dichlorobenzyl 3-chloro-6-(2-chloro-4-(trifluoromethyl)phenyl)picolinate], the pest or weed control at 140 g/ha fell in the range of 30 to 44% under setting [1]; 95 to 100% under setting [2]; 45 to 59% under setting [3]; 85 to 94% under setting [4]; 85 to 94% under setting [5]; 0 to 29% under setting [6]. Also, the pest or weed control at 140 g/ha runs as follows: under setting [7], 85 to 94%; under setting [8], 75 to 84%; under setting [9], 85 to 94%; under setting [10], 75 to 84%; under setting [11], 0 to 29%; under setting [12], 60 to 74%. Besides, the pest or weed control at 140 g/ha is, setting by setting: under setting [13], 85 to 94%; under setting [15], 0 to 29%; under setting [14], 60 to 74%.

Regarding `O=C(OCc1cccc(C(F)(F)F)c1)c1nc(-c2ccc(C(F)(F)F)cc2Cl)ccc1Cl` [F117, 3-(Trifluoromethyl) benzyl 3-chloro-6-(2-chloro-4-(trifluoromethyl)phenyl)picolinate], the pest or weed control at 140 g/ha was in the range of 45 to 59% under setting [1]; 95 to 100% under setting [2]; 60 to 74% under setting [3]; 95 to 100% under setting [4]; 85 to 94% under setting [5]; 0 to 29% under setting [6]. The pest or weed control at 140 g/ha was 95 to 100% under setting [7]; 85 to 94% under setting [8]; 95 to 100% under setting [9]; 95 to 100% under setting [10]; 0 to 29% under setting [11]; 95 to 100% under setting [12]. The pest or weed control at 140 g/ha under setting [13] was 95 to 100%, the pest or weed control at 140 g/ha under setting [15] is 0 to 29% and the pest or weed control at 140 g/ha under setting [14] lay within 85 to 94%.
